{"source": "patent US10954222B2", "about": "“Benzothiophene compound, alternative autophagy-inducing agent and anticancer agent including the compound as active ingredient, and method for screening for compound having anticancer activity” (National University Corporation Tokyo Medical and Dental …, priority 2012, dated 2021)", "key": {"Lamp1-GFP/ATG5-KO MEFs": {"tested_on": "Lamp1-GFP/ATG5-KO MEFs", "test": "Evaluation of activity to induce alternative autophagy (fluorescent bright spots due to aggregation of Lamp1-GFP)", "assay_type": "cell-based, mouse", "description": "First, by using a retrovirus, a gene for expression of a Lamp1-GFP fusion protein (also referred to as “Lamp1-GFP”) was introduced into ATG5-deficient mouse embryonic fibroblasts (also referred to as “ATG5-KO MEFs”). Then, a cell with high expression of Lamp1-GFP was cloned and prepared as Lamp1-GFP/ATG5-KO MEFs.\nThe ATG5-KO MEFs were prepared by introducing a gene for expression of SV40T antigen into MEFs established from an ATG5-deficient C57/B6J mouse at a fetal age of 14.5 days by an electroporation method using an Nucleofector system (manufactured by amaxa) for immortalization. In addition, the retrovirus was prepared by introducing an MSCV-Lamp1-GFP (zeocin resistant) vector into plat E cells, which were retrovirus packaging cells.\nTo the Lamp1-GFP/ATG5-KO MEFs seeded at 1×10^4/96 wells on the preceding day, each of the test compounds was added at a final concentration of 50 μM, and the Lamp1-GFP/ATG5-KO MEFs were cultured at 37° C. under 10% CO2 for 5 hours.\nThen, for observation, Hoechst 33342 (manufactured by invitrogen) was added at a final concentration of 1 ng/ml to each culture liquid, followed by incubation for 5 minutes. Then, the culture liquid was replaced with 100 μl of HBSS. Subsequently, five visual fields per well were photographed at random with IN CELL ANALYZER 1000 (manufactured by GE Healthcare).\nThen, the thus obtained novel benzothiophene compounds (TMD-459 and TMD-460) were evaluated for the ability to induce alternative autophagy by the same method as that described in Example 1. Note that, in Example 10, each of the compounds was added to culture liquids at final concentrations of 10, 20, 30, 40, and 50 μM. In addition, compound #9 was also added as a reference example to culture liquids at the above-described concentrations. Then, 5 hours after the addition of each of these compounds, five visual fields per each well were photographed at random with IN CELL ANALYZER 1000, and the presence or absence of fluorescent bright spots due to the aggregation of Lamp1-GFP was visually determined."}, "[1]": {"tested_on": "tumor cell line 53T implanted in wild-type C57/B6J mice", "test": "In vivo anticancer activity, tumor volume in cancer-bearing mice implanted with 53T", "design": "species or system mouse", "description": "A tumor cell line (also referred to as “53T”) established from a tumor developed spontaneously in a p53 deficient C57/B6J mouse was implanted at 4 sites in the ventral skin of each of wild-type C57/B6J mice at 3×10^5 cells per site. From the following day, the compounds were administered to the mice every other day five times in total. The concentration of each compound was 0.4 μmol/(50 μl DMSO+100 μl PBS)/mouse/administration. In addition, a negative control group to which only the same amount of DMSO was administered was prepared. Then, 21 days (3 weeks) after the implantation, the tumor diameters of the mice were measured, and the tumor volumes were calculated, and compared with that of the control group.\nThe 53T was implanted at 4 sites in the ventral skin of each of wild-type C57/B6J mice at 3×10^5 cells per site. From the following day, 0 (DMSO alone), 5, 10, or 20 μM of each of compounds #09 and #13 was administered to six mice every other day five times in total. Then, 21 days (3 weeks) after the implantation, the tumor diameters of the mice were measured, and the tumor volumes were calculated. FIGS. 9 and 11 show the obtained results. Note that, in FIGS. 9 and 11, each point indicates the average volume of the tumors at the four sites in a mouse.\nIn addition, in the same manner as described above, the 53T was implanted in mice, and, from the following day, each of compound #09 at a concentration of 10 μM and compound #13 at a concentration of 5 μM was administered to four cancer-bearing mice every other day five times in total. Then, 21 days (3 weeks) after the implantation, the tumor diameters of the mice were measured, and the tumor volumes were calculated. In addition, a negative control to which DMSO was administered was also prepared, and the tumor volume was calculated in the same manner. In addition, these experiments were conducted three times independently of each other. FIGS. 10 and 12 show the obtained results. Note that in FIGS. 10 and 12, each point indicates the average volume of the tumors at the four sites in a mouse."}, "[2]": {"tested_on": "p53-deficient cancer cells (53T)", "test": "Alternative autophagy-inducing activity in tumor cell line (Lamp2 aggregation, fluorescence and electron microscope)", "assay_type": "cell-based, mouse", "conditions": "20 μM, six hours, FIGS. 3 to 6", "description": "In the same manner as in the above-described <Evaluation of Alternative Autophagy-Inducing Activity> using the Lamp1-GFP/ATG5-KO MEFs, each of the compounds #09 and #13 was added at a final concentration of 20 μM to a culture liquid of the tumor cell line (also referred to as “53T”) established from the tumor developed spontaneously in the p53 deficient C57/B6J mouse. […] Note that, in this evaluation, Lamp2 was used instead of Lamp1. FIGS. 3 to 6 show the obtained results."}, "[3]": {"tested_on": "mouse tumor cell line 53T", "test": "Evaluation of in vitro anticancer activity (Cell titer blue, cell death induction rate)", "assay_type": "cell-based", "design": "key: (CTB of negative control − CTB treated)/CTB of negative control", "conditions": "24 hours, CTB", "description": "First, the mouse tumor cell line 53T was seeded at 2×10^4/well on 96 well plates. Then, on the following day, each of compounds #09 and #13 dissolved in DMSO was added at a final concentration of 1, 5, 10, 20, or 50 μM. In addition, a negative control to which only DMSO was added was prepared. Subsequently, the cells were cultured at 37° C. under 10% CO2 for 24 hours. Then, by using Cell titer blue (CTB) (manufactured by Promega) according to the attached protocol, the amount of the fluorescence of each well of the cells 10 minutes after the addition of the CTB reagent was measured as a CTB measurement value of the cells brought into contact with compound #09 or #13. On the basis of such measurement values, the cell death induction rate of each of compounds #09 and #13 was calculated according to the following formula. Cell death induction rate=(CTB measurement value of negative control−CTB measurement value of cells to which compound was added)/CTB measurement value of negative control"}, "[4]": {"tested_on": "primary cultured fibroblasts (normal cells)", "test": "Activity to induce cell death specific to cancer cells: normal cells (CTB survival rate)", "assay_type": "cell-based", "conditions": "20 μM, FIGS. 7 and 8", "description": "CTB measurement values were obtained in the same manner as in the above-described <Evaluation of In Vitro Anticancer Activity> by adding each of compounds #09 and #13 at a final concentration of 20 μM to culture liquids of primary cultured fibroblasts (normal cells) and fibroblasts (cancer cells) immortalized with SV40. On the basis of the obtained CTB measurement values, the cell survival rate was calculated over time. Note that the cell survival rate was defined as 1-cell death induction rate. FIGS. 7 and 8 show the obtained results."}, "[5]": {"tested_on": "fibroblasts (cancer cells) immortalized with SV40", "test": "Activity to induce cell death specific to cancer cells: cancer cells (CTB survival rate)", "assay_type": "cell-based", "conditions": "20 μM, FIGS. 7 and 8"}, "[6]": {"tested_on": "53T implanted in wild-type C57/B6J mice", "test": "Survival rate of cancer-bearing mice", "assay_type": "in vivo, mouse", "conditions": "10 μM every other day 5 times; compared with etoposide at 10 μM, FIGS. 13 to 15"}, "[7]": {"tested_on": "MEFs immortalized with SV40T antigen", "conditions": "24 hours, CTB"}, "[8]": {"tested_on": "MEFs immortalized with SV40T antigen", "test": "cells", "conditions": "Mus musculus, 24 h, read-out: induced cell death of the MEFs immortalized with SV40T antigen"}}, "note": "Read-outs that look alike come from different tables or passages of the source."}
{"smiles": "CCOC(=O)c1c(NC(C)=O)sc2c(OCCN(CC)CC)c(Br)ccc12", "note": "[Compound #09, Ethyl 2-Acetylamino-6-bromo-7-[2-(N,N-diethylamino)ethyloxy]benzo[b]thiophene-3-carboxylate]", "values": [{"measurement": "alternative autophagy-inducing activity (FIG. 16)", "setting": "Lamp1-GFP/ATG5-KO MEFs; Example 9, same method as Example 1", "result": "having alternative autophagy-inducing activity"}, {"measurement": "aggregation of Lamp1-GFP, visually determined", "setting": "Lamp1-GFP/ATG5-KO MEFs; concentrations of 10 μM or higher (10 to 50 μM), 5 hours", "result": "aggregation of the Lamp1-GFP was observed in all the cells"}, {"measurement": "dose dependence of in vivo anticancer activity (FIG. 9)", "setting": "[1]; 0, 5, 10, or 20 μM", "result": "dose-dependent activity"}, {"measurement": "in vivo anticancer activity (tumor volume vs control group, FIG. 2)", "setting": "[1]; 0.4 μmol/mouse/administration, every other day five times, 21 days after implantation", "result": "selected as compounds having in vivo anticancer activity"}, {"measurement": "in vivo anticancer activity (tumor volume, FIGS. 9 to 12)", "setting": "[1]; 5, 10, or 20 μM every other day five times, 21 days after implantation", "result": "exhibited in vivo anticancer activity"}, {"measurement": "anticancer activity (FIG. 17, tumor volumes in cancer-bearing mice)", "setting": "[1]; Example 9", "result": "had anticancer activity"}, {"measurement": "aggregation of Lamp2 and occurrence of autophagy", "setting": "[2]", "result": "aggregation of the lysosomal protein Lamp2 and occurrence of autophagy were observed"}, {"measurement": "Cell death induction rate", "setting": "[3]; 1 μM", "result": 0}, {"measurement": "Cell death induction rate", "setting": "[3]; 5 μM", "result": 0.07741}, {"measurement": "Cell death induction rate", "setting": "[3]; 10 μM", "result": 0.1725}, {"measurement": "Cell death induction rate", "setting": "[3]; 20 μM", "result": 0.6305}, {"measurement": "Cell death induction rate", "setting": "[3]; 50 μM", "result": 0.9456}, {"measurement": "cell death of normal cells (cell survival rate over time)", "setting": "[4]", "result": "hardly induced cell death of the normal cells"}, {"measurement": "cell death-inducing activity on cancer cells (cell survival rate over time)", "setting": "[5]", "result": "exhibited remarkable cell death-inducing activity on the cancer cells"}, {"measurement": "improvement effect on the survival rate of the cancer-bearing mice", "setting": "[6]", "result": "higher improvement effect on the survival rate of the cancer-bearing mice than etoposide"}, {"measurement": "Cell death induction rate", "setting": "[7]; 10 μM", "result": 0.7426}, {"measurement": "Cell death induction rate", "setting": "[7]; 20 μM", "result": 0.887}, {"measurement": "Cell death induction rate", "setting": "[7]; 30 μM", "result": 0.89}, {"measurement": "Cell death induction rate", "setting": "[7]; 40 μM", "result": 0.8913}, {"measurement": "Cell death induction rate", "setting": "[7]; 50 μM", "result": 0.8848}, {"measurement": "mortality at 20 µM", "setting": "[8]", "result": "≥ 80", "unit": "%"}]}
